Source: patent US20220033406A1, “C[…] AS ANTI-VIRALS” (priority 2018, published 2022)
Where two headings read alike, the source gives them in different places.

Experiments:
[1] = target: T1, Recombinant full-length HIV-1 Reverse Transcriptase (HIVrt) (Human immunodeficiency virus type 1 group M subtype B, UniProt P04585); experiment: Inhibition of HIV reverse transcriptase (RdDp assay); assay type: biochemical; conditions: 1 nM HIVrt, 30° C., 40 min, 3H-TTP incorporation; Table 3 triphosphates
T1 construct: Recombinant full-length HIV-1 Reverse Transcriptase (HIVrt); purchased Abcam ab63979
Method: Recombinant full-length HIV-1 Reverse Transcriptase (HIVrt) was purchased from Abcam, catalog #ab63979. The last 385 nucleotide region of the HCV anti-genome complementary to the 5′ untranslated region (c5′UTR) was synthesized using T7 RNA polymerase Megascript kit from Ambion (Cat #AM1333). A DNA oligo served as an internal initiation primer and was purchased from IDT. Unless otherwise specified, reaction samples consisted of 20 nM c5′UTR RNA, 100 nM DNA primer, and 1 nM HIVrt, mixed together in a buffer containing 50 mM Tris pH 7.5, 100 mM KCl, 4 mM dithiothreitol (DTT), and 12.5 mM MgCl2. Reactions were initiated at 30° C. by adding 0.1 μM adenosine triphosphate (dATP), 0.1 μM cytosine triphosphate (dCTP), 1 μM guanosine triphosphate (dGTP), and 0.32 μM ^3H-thymidine triphosphate (^3H-TTP), in a final volume of 50 μL. After 40-mins incubation, the reaction was terminated by adding 60 μL of chilled 20% (w/v) trichloroacetic acid with 500 μM ATP to precipitate nucleic acids. After incubation at 4° C. for 1 h, the sample underwent filtration on a multiscreen BV […] 96-well plate (Millipore). 40 μL Microscint-20 (Perkin Elmer) was added to the well and the counts in the sample were determined by a Trilux Microbeta microplate scintillation reader (Wallac).
All data were analyzed with GraphPad Prism. The compound concentration at which the enzyme-catalyzed rate was reduced by 50% (IC50) was calculated by fitting the data to the equation Y=% Min+(% Max−% Min)/(1+X/IC50), where Y corresponds to the percent relative enzyme activity, % Min is the residual relative activity at saturating compound concentration, % Max is the relative maximum enzyme activity, and X corresponds to the compound concentration. The Ki was calculated using the Cheng-Prusoff equation assuming competitive inhibition relative to natural dNTP incorporation: K=IC50/(1+[dNTP]/Km), where [dNTP] is the concentration of natural dNTP and Km is the apparent Km for dNTP. The standard HIVrt RNA-dependent DNA polymerization (RdDp) assay was used to determine the IC50 values.

[2] = target: T2, Recombinant full-length HBV polymerase (HBVpol) (Hepatitis B virus genotype D subtype ayw, UniProt P03156); experiment: Inhibition of HBV polymerase (RdDp assay); assay type: biochemical; conditions: HBVpol expressed in SF9 cells, 30° C., 120 min, 3H-TTP incorporation; Table 3 triphosphates; read-out: HBVrt IC50
T2 construct: Recombinant full-length HBV polymerase(HBVpol) was expressed in SF9 cells; made in house; host or cells: SF9 insect cells

[3] = tested on: VSV-G pseudotyped HIV NL4-3; experiment: microbe, parasite or virus in culture; assay type: cell-based
HBV = experiment: Inhibition of HBV in HepG2.117 cells (anti-HBV activity, qPCR); assay type: cell-based; conditions: HBV viral DNA copy numbers in supernatant by qPCR
[4] = Human immunodeficiency virus 1, NL43, 72 h, read-out: HIV EC50 (uM)
[5] = Hepatitis B virus, HepG2.117, 96 h, Table 2 nucleosides
[6] = Hepatitis B virus, HepG2.117, 96 h, Table 4 phosphoramidate prodrugs

T2 sequence (P03156 whole entry): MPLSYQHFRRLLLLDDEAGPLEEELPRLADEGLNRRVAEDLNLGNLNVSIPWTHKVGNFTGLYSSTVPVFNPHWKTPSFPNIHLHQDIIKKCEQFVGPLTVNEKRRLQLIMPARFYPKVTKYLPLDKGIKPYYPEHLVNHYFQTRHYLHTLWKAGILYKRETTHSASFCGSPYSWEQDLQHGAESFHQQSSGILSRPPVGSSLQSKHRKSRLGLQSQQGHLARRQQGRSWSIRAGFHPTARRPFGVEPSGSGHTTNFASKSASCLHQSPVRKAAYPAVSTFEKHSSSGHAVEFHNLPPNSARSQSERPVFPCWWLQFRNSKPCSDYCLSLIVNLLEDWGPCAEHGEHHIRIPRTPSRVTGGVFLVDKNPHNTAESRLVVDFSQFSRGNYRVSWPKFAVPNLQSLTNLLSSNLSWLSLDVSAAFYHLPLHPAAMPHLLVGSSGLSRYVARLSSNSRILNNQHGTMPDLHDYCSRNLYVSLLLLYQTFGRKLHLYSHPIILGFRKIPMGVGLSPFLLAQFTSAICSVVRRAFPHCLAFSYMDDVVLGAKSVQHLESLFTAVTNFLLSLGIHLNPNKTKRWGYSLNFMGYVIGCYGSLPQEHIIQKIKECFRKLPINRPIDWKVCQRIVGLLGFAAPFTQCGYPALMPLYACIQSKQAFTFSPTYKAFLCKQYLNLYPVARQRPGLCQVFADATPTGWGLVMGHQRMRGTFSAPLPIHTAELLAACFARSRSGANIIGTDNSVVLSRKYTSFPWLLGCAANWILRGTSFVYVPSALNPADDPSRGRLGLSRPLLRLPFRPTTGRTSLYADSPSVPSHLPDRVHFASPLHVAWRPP

C=C1[C@@H](n2cnc3c(N)ncnc32)C[C@H](O)[C@@]1(CCl)COP(=O)(O)OP(=O)(O)OP(=O)(O)O [Example 31, ((1S,3S,5S)-3-(6-Amino-9H-purin-9-yl)-1-(chloromethyl)-5-hydroxy-2-methylenecyclopentyl)methyl Tetrahydrogen Triphosphate]
IC50 [1]: 363 nM

C=C1[C@@H](n2cc(C)c(=O)[nH]c2=O)C[C@H](O)[C@@]1(F)COP(=O)(O)OP(=O)(O)OP(=O)(O)O [Example 24, ((1S,3S,5S)-1-Fluoro-5-hydroxy-3-(5-methyl-2,4-dioxo-3,4-dihydropyrimidin-1(2H)-yl)-2-methylenecyclopentyl)methyl Tetrahydrogen Triphosphate]
IC50 [1]: 267 nM | IC50 [2]: 2.9 nM

C#C[C@]1(COP(=O)(O)OP(=O)(O)OP(=O)(O)O)C(=C)[C@@H](n2cnc3c(N)ncnc32)C[C@@H]1O [Example 36]
IC50 [1]: 33.1 nM

C=C1[C@@H](n2cnc3c(=O)[nH]c(N)nc32)C[C@H](O)[C@@]1(CF)COP(=O)(O)OP(=O)(O)OP(=O)(O)O [Example 28, ((1S,3S,5S)-3-(2-Amino-6-oxo-1,6-dihydro-9H-purin-9-yl)-1-(fluoromethyl)-5-hydroxy-2-methylenecyclopentyl)methyl Tetrahydrogen Triphosphate]
IC50 [1]: 749 nM

C=C1[C@@H](n2cnc3c(=O)[nH]c(N)nc32)C[C@H](O)[C@@]1(F)CO [Example 4, 2-Amino-9-((1S,3S,4S)-3-fluoro-4-hydroxy-3-(hydroxymethyl)-2-methylenecyclopentyl)-1,9-dihydro-6H-purin-6-one]
EC50 [3, 4]: 0.0356 µM | EC50 (HBV; [5]): < 0.9 nM

C=C[C@]1(CO)C(=C)[C@@H](n2cnc3c(N)ncnc32)C[C@@H]1O [Example 20, (1S,2R,4S)-4-(6-Amino-9H-purin-9-yl)-2-(hydroxymethyl)-3-methylene-2-vinylcyclopentan-1-ol]
EC50 [3, 4]: 0.547 µM | EC50 (HBV; [5]): > 10000 nM

C=C1[C@H](CO)[C@@H](O)C[C@@H]1n1ccc2c(=O)[nH]c(N)nc21 [Example 2, 2-Amino-7-((1S,3R,4S)-4-hydroxy-3-(hydroxymethyl)-2-methylenecyclopentyl)-3,7-dihydro-4H-pyrrolo[2,3-d]pyrimidin-4-one]
EC50 [3, 4]: > 33.3 µM | EC50 (HBV; [5]): > 10000 nM

C=C1[C@@H](n2ccc(N)nc2=O)C[C@H](O)[C@@]1(C#N)COP(=O)(N[C@@H](C)C(=O)OC(C)C)Oc1ccccc1 (stereo partly drawn) [Example 42, Isopropyl ((((1S,3S,5S)-3-(4-amino-2-oxopyrimidin-1(2H)-yl)-1-cyano-5-hydroxy-2-methylenecyclopentyl)methoxy)(phenoxy)phosphoryl)-L-alaninate]
EC50 [3, 4]: 10.4 µM | EC50 (HBV; [6]): > 10000 nM

C=C1[C@@H](n2cnc3c(N)ncnc32)C[C@H](O)[C@]1(CO)CCl [Example 14, (1S,2S,4S)-4-(6-Amino-9H-purin-9-yl)-2-(chloromethyl)-2-(hydroxymethyl)-3-methylenecyclopentan-1-ol]
EC50 [3, 4]: 1.08 µM | EC50 (HBV; [5]): 3450 nM

C=C1[C@@H](n2cnc3c(=O)[nH]c(N)nc32)C[C@H](O)[C@@]1(C#N)COP(=O)(O)OP(=O)(O)OP(=O)(O)O [Example 35, ((1S,3S,5S)-3-(2-Amino-6-oxo-1,6-dihydro-9H-purin-9-yl)-1-cyano-5-hydroxy-2-methylenecyclopentyl)methyl Tetrahydrogen Triphosphate]
IC50 [1]: 260 nM

C=C1[C@@H](n2cc(C)c(=O)[nH]c2=O)C[C@H](O)[C@@]1(F)CO [Example 3, 1-((1S,3S,4S)-3-Fluoro-4-hydroxy-3-(hydroxymethyl)-2-methylenecyclopentyl)-5-methylpyrimidine-2,4(1H,3H)-dione]
EC50 [3, 4]: > 33.3 µM | EC50 (HBV; [5]): > 10000 nM

C=C[C@]1(COP(=O)(O)OP(=O)(O)OP(=O)(O)O)C(=C)[C@@H](n2cnc3c(N)ncnc32)C[C@@H]1O [Example 37, ((1R,3S,5S)-3-(6-Amino-9H-purin-9-yl)-5-hydroxy-2-methylene-1-vinylcyclopentyl)methyl Tetrahydrogen Triphosphate]
IC50 [1]: > 10000 nM

C#C[C@]1(CO)C(=C)[C@@H](n2cnc3c(N)ncnc32)C[C@@H]1O [Example 19, (1S,2R,4S)-4-(6-Amino-9H-purin-9-yl)-2-ethynyl-2-(hydroxymethyl)-3-methylenecyclopentan-1-ol]
EC50 [3, 4]: 0.0665 µM | EC50 (HBV; [5]): > 10000 nM

C=C1[C@@H](n2cnc3c(N)ncnc32)C[C@H](O)[C@@]1(C#N)COP(=O)(O)OP(=O)(O)OP(=O)(O)O [Example 34, ((1S,3S,5S)-3-(6-Amino-9H-purin-9-yl)-1-cyano-5-hydroxy-2-methylenecyclopentyl)methyl Tetrahydrogen Triphosphate]
IC50 [1]: > 10000 nM

C=C1[C@@H](n2cnc3c(N)ncnc32)C[C@H](O)[C@@]1(F)COP(=O)(N[C@@H](C)C(=O)OCC(C)(C)C)Oc1ccccc1 (stereo partly drawn) [Example 39, Neopentyl ((((1S,3S,5S)-3-(6-amino-9H-purin-9-yl)-1-fluoro-5-hydroxy-2-methylenecyclopentyl)methoxy)(phenoxy)phosphoryl)-L-alaninate]
EC50 [3, 4]: 0.0139 µM | EC50 (HBV; [6]): 0.3 nM

C=C1[C@@H](n2cnc3c(=O)[nH]c(N)nc32)C[C@H](O)[C@]1(CO)CF [Example 10, 2-Amino-9-((1S,3S,4S)-3-(fluoromethyl)-4-hydroxy-3-(hydroxymethyl)-2-methylenecyclopentyl)-1,9-dihydro-6H-purin-6-one]
EC50 [3, 4]: 0.662 µM | EC50 (HBV; [5]): 166 nM

C=C1[C@@H](n2cc(C)c(=O)[nH]c2=O)C[C@H](O)[C@]1(CO)CF [Example 12, 1-((1S,3S,4S)-3-(fluoromethyl)-4-hydroxy-3-(hydroxymethyl)-2-methylenecyclopentyl)-5-methylpyrimidine-2,4(1H,3H)-dione]
EC50 [3, 4]: > 33.3 µM | EC50 (HBV; [5]): > 10000 nM

C=C1[C@@H](n2cc(C)c(=O)[nH]c2=O)C[C@H](O)[C@@]1(C#N)COP(=O)(N[C@@H](C)C(=O)OC(C)C)Oc1ccccc1 (stereo partly drawn) [Example 41, Isopropyl ((((1S,3S,5S)-1-cyano-5-hydroxy-3-(5-methyl-2.4-dioxo-3.4-dihydropyrimidin-1(2H)-yl)-2-methylenecyclopentyl)methoxy)(phenoxy)phosphoryl)-L-alaninate]
EC50 [3, 4]: 10.2 µM | EC50 (HBV; [6]): > 10000 nM

C=C1[C@@H](n2cnc3c(N)ncnc32)C[C@H](O)[C@]1(CO)CF [Example 13, (1S,2S,4S)-4-(6-Amino-9H-purin-9-yl)-2-(fluoromethyl)-2-(hydroxymethyl)-3-methylenecyclopentan-1-ol]
EC50 [3, 4]: 5.02 µM | EC50 (HBV; [5]): > 5530 nM

C=C1[C@H](COP(=O)(O)OP(=O)(O)OP(=O)(O)O)[C@@H](O)C[C@@H]1n1ccc2c(N)ncnc21 [Example 22, ((1R,3S,5S)-3-(4-Amino-7H-pyrrolo[2,3-d]pyrimidin-7-yl)-5-hydroxy-2-methylenecyclopentyl)methyl Tetrahydrogen Triphosphate]
IC50 [1]: 158 nM

C=C1[C@@H](n2cc(C)c(=O)[nH]c2=O)C[C@H](O)[C@@]1(CF)COP(=O)(O)OP(=O)(O)OP(=O)(O)O [Example 30, ((1S,3S,5S)-1-(Fluoromethyl)-5-hydroxy-3-(5-methyl-2,4-dioxo-3,4-dihydropyrimidin-1(2H)-yl)-2-methylenecyclopentyl)methyl Tetrahydrogen Triphosphate]
IC50 [1]: 1330 nM

C=C1[C@@H](n2ccc(N)nc2=O)C[C@H](O)[C@]1(CO)CF [Example 11, 4-Amino-1-((1S,3S,4S)-3-(fluoromethyl)-4-hydroxy-3-(hydroxymethyl)-2-methylenecyclopentyl)pyrimidin-2(1H)-one]
EC50 [3, 4]: 0.911 µM | EC50 (HBV; [5]): 9180 nM

C=C1[C@@H](n2cnc3c(=O)[nH]c(N)nc32)C[C@H](O)[C@@]1(C#N)COP(=O)(N[C@@H](C)C(=O)OC(C)C)Oc1ccccc1 (single isomer, unassigned) [Example 43, Isopropyl ((R*)-(((1S,3S,5S)-3-(2-amino-6-oxo-1,6-dihydro-9H-purin-9-yl)-1-cyano-5-hydroxy-2-methylenecyclopentyl)methoxy)(phenoxy)phosphoryl)-L-alaninate]
EC50 ([3]; read-out: HIV EC50): 4.25 µM | EC50 (HBV; 96 h, Table 4 phosphoramidate prodrugs): 591 nM
